A short description of data set [1]: MTT cytotoxicity assay, COLO201. In kind it is cell-based, human. The conditions noted are these: human; CC50 of WI-38 divided by CC50 of COLO201; read-out: SCI (selective cytotoxicity index). From the text:
(§1) The cytotoxicity of the test compounds was studied using the MTT assay against a number of cell lines: CT-26 murine colon carcinoma, 4T1 murine mammary carcinoma, MDA-MB-231 human breast adenocarcinoma, COLO201 human colorectal adenocarcinoma, HepG2 human hepatocellular carcinoma, A549 human non-small-cell lung carcinoma, SK-BR-3 human breast adenocarcinoma, SNU-1 human gastric carcinoma, Jurkat human acute T-lymphoblastic leukemia, and WI-38 human lung fibroblasts (normal cells). Doxorubicin (Dox) was used as a reference drug. Cells were incubated with test compounds for 72 h.
(§2) Cells were seeded in flat-bottomed 96-well plates at 10,000 cells per well (for A549, SNU-1, WI-38, CT-26, MDA-MB-231, 4T1, and HepG2 cells) or 20,000 cells per well (for SK-BR-3, Jurkat, and COLO201 cells) and cultivated in complete culture mediums (for composition of each medium, see the Supplementary Materials, Table S1) in a CO2 incubator at 37 °C. At the first stage of this study, the test compounds dissolved in DMSO were added to the wells with cells at final concentrations from 1 × 10^–4 to 1 × 10^–10 mol/L (A549, SK-BR-3, SNU-1, Jurkat, and WI-38) or 1 × 10^–3 to 1 × 10^–8 mol/L (CT-26, MDA-MB-231, 4T1, COLO201, and HepG2); DMSO concentration in the wells was finally 1%. A complete cultural medium and DMSO were added to the control wells at the same concentration as in the experimental wells; 0.1% Triton X-100 solution (10 µL) was added to the corresponding wells as a non-specific positive control. After adding the test compounds, the cells were incubated for 72 h in an atmosphere containing 5% CO2. After that, the nutrient medium was removed from each well (in the case of SK-BR-3, Jurkat, and COLO201, plates were pre-centrifuged at 1500 rpm for 6 min). A solution of the commercial anticancer agent Doxorubicin (Dox, Sigma-Aldrich, St. Louis, MO, USA) in DMSO was used as a reference drug. Then, 150 µL of a complete medium with the MTT reagent (PanEco, Moscow, Russia) at a concentration of 0.5 mg/mL was added and incubated for 2 h. Formazan crystals were dissolved in DMSO (200 µL) and the absorbance in the wells was measured at 540 nm and a reference wavelength of 650 nm (Sunrise, Tecan, Groding, Austria). Experiments were performed in three parallel runs. Cell viability after incubation in the presence of test compounds was calculated in relation to cell viability in the control wells according to the Formula (1):Cell viability (%) = (Aexp/Ac) × 100,(1) where Aexp is the optical density of solutions in the wells containing test compounds; Ac is the optical density of solutions in control wells without test compounds. For detailed information on cell viability of various cell lines, see the Supplementary Materials, Figures S21–S26.
(§3) At the second stage of this study, in order to more accurately calculate the CC50 (the half maximal inhibitory concentration), the cytotoxic effect of test compounds was evaluated at concentrations close to CC50 found at the first stage. The study of the cytotoxic activity of each substance towards the cells of each line was carried out in triplicate; the mean value was used to calculate CC50. The CC50 values were determined by non-linear regression analysis using Graph-Pad Prism7.

In data set [2] the test system is COLO201 human colorectal adenocarcinoma. Briefly: MTT cytotoxicity assay, COLO201. In kind it is cell-based. Particulars: Homo sapiens, COLO 201; for CC50: COLO201, 72 h incubation, MTT, n = 3.
Source text: as §1, §2, §3

Data set [3] in a line: MTT cytotoxicity assay, HepG2. In kind it is cell-based, human. Particulars: human; CC50 of WI-38 divided by CC50 of HepG2; read-out: SCI (selective cytotoxicity index).
Source text: as §1, §2, §3

Data set [4] has as its system HepG2 human hepatocellular carcinoma. Briefly: MTT cytotoxicity assay, HepG2. In kind it is cell-based. The conditions noted are these: Homo sapiens; for CC50: HepG2, 72 h incubation, MTT, n = 3.
Source text: as §1, §2, §3

Data set [5] is described as follows: MTT cytotoxicity assay, SNU-1. In kind it is cell-based, human. Particulars: human, CC50 of WI-38 divided by CC50 of SNU-1 (Table 1); read-out: SCI (selective cytotoxicity index).
Source text: as §1, §2, §3

Data set [6] has as its system SNU-1 human gastric carcinoma. The experiment in a line: MTT cytotoxicity assay, SNU-1. In kind it is cell-based. The conditions noted are these: Homo sapiens; for CC50: SNU1, 72 h, SNU-1, 72 h incubation, MTT, n = 3 (Table 1).
Source text: as §1, §2, §3

Data set [7] can be described thus: MTT cytotoxicity assay, SK-BR-3. In kind it is cell-based, human. The conditions noted are these: human, CC50 of WI-38 divided by CC50 of SK-BR-3 (Table 1); read-out: SCI (selective cytotoxicity index).
Source text: as §1, §2, §3

Data set [8] relates to SK-BR-3 human breast adenocarcinoma. The experiment in a line: MTT cytotoxicity assay, SK-BR-3. In kind it is cell-based. The conditions noted are these: Homo sapiens; for CC50: SK-BR-3, 72 h, SK-BR-3, 72 h incubation, MTT, n = 3 (Table 1).
Source text: as §1, §2, §3

Data set [9] is described as follows: MTT cytotoxicity assay, MDA-MB-231. In kind it is cell-based, human. Particulars: human; CC50 of WI-38 divided by CC50 of MDA-MB-231; read-out: SCI (selective cytotoxicity index).
Source text: as §1, §2, §3

In data set [10] the test system is MDA-MB-231 human breast adenocarcinoma. Briefly: MTT cytotoxicity assay, MDA-MB-231. It counts as cell-based. The conditions noted are these: Homo sapiens; for CC50: MDA-MB-231, 72 h incubation, MTT, n = 3.
Source text: as §1, §2, §3

Data set [11] can be described thus: MTT cytotoxicity assay, Jurkat. It counts as cell-based, human. The conditions noted are these: human, CC50 of WI-38 divided by CC50 of Jurkat (Table 1); read-out: SCI (selective cytotoxicity index).
Source text: as §1, §2, §3

The subject of data set [12] is Jurkat human acute T-lymphoblastic leukemia. The experiment in a line: MTT cytotoxicity assay, Jurkat. It counts as cell-based. The conditions noted are these: Homo sapiens, Jurkat; for CC50: 72 h, 72 h incubation, MTT, n = 3 (Table 1).
Source text: as §1, §2, §3

Data set [13] can be described thus: MTT cytotoxicity assay, A549. Particulars: human, CC50 of WI-38 divided by CC50 of A549 (Table 1); read-out: SCI (selective cytotoxicity index). In kind it is cell-based, human.
Source text: as §1, §2, §3

The test system of data set [14] is A549 human non-small-cell lung carcinoma. Briefly: MTT cytotoxicity assay, A549. It counts as cell-based. The conditions noted are these: Homo sapiens; for CC50: A549, 72 h, A549, 72 h incubation, MTT, n = 3 (Table 1).
Source text: as §1, §2, §3

The nature of data set [15]: MTT cytotoxicity assay, 4T1. In kind it is cell-based, murine. Particulars: mouse (4T1) and human (WI-38); CC50 of WI-38 divided by CC50 of 4T1; read-out: SCI (selective cytotoxicity index).
Source text: as §1, §2, §3

Data set [16] has as its system 4T1 murine mammary carcinoma. The experiment in a line: MTT cytotoxicity assay, 4T1. Particulars: Mus musculus; for CC50: 4T1, 72 h incubation, MTT, n = 3. It counts as cell-based.
Source text: as §1, §2, §3

Data set [17] in a line: MTT cytotoxicity assay, CT-26. It counts as cell-based, murine. Particulars: mouse (CT-26) and human (WI-38); CC50 of WI-38 divided by CC50 of CT-26; read-out: SCI (selective cytotoxicity index).
Source text: as §1, §2, §3

For data set [18], the system named is CT-26 murine colon carcinoma. Briefly: MTT cytotoxicity assay, CT-26. It counts as cell-based. Particulars: Mus musculus, CT26; for CC50: CT-26, 72 h incubation, MTT, n = 3.
Source text: as §1, §2, §3

Data set [19] in a line: MTT cytotoxicity assay, WI-38 normal cells. It counts as cell-based. Particulars: human, WI-38 lung fibroblasts (normal cells); for CC50 at 72 h: WI-38, 72 h incubation, MTT, n = 3.
Source text: as §1, §2, §3

`CC1COc2c(ccc(F)c2F)N1C(=O)CCCCCCCCCCCNc1ncnc2[nH]cnc12` (stereo not drawn) [Compound 1e]: the selectivity ratio at 72 h turned out to be 20 in data set [1]; 14 in [3]; 12 in data set [5]; 0.83 in [7]; 5.9 in data set [9]; 18 in [11]. Moreover, the selectivity ratio at 72 h stood at 0.95 in [13], 145 in [15] and 21 in [17]. Moreover, the viability at 100 µM in data set [2] (COLO201, 1 × 10^–4 M, mean ± SD (n = 3), read-out: Cell viability) was 2 ± 1%; in [4] (HepG2, 1 × 10^–4 M, mean ± SD (n = 3), read-out: Cell viability), 2 ± 1%; in [6] (SNU1, SNU-1, 1 × 10^–4 M, mean ± SD (n = 3), read-out: Cell viability) it was 5 ± 1%; in [8] (SK-BR-3, 1 × 10^–4 M, mean ± SD (n = 3), read-out: Cell viability), 9 ± 2%; in [10] (MDA-MB-231, 1 × 10^–4 M, mean ± SD (n = 3), read-out: Cell viability), 7 ± 5%; in data set [12] (1 × 10^–4 M, mean ± SD (n = 3), read-out: Cell viability) it was 10 ± 4%. The viability at 100 µM turned out to be 6% in data set [14] (A549, 1 × 10^–4 M, mean ± SD (n = 3)); 2 ± 2% in data set [16] (4T1, 1 × 10^–4 M, mean ± SD (n = 3), read-out: Cell viability); 3 ± 2% in [18] (CT-26, 1 × 10^–4 M, mean ± SD (n = 3), read-out: Cell viability). For the same compound, the cytotoxic concentration (CC50) in data set [2] amounted to 3.5 µM; in data set [4] it was 5.2 µM; in data set [6] it was 6 µM; in [8], 85 µM; in data set [10], 12 µM; in [12] it was 4 µM. The CC50 in data set [14] came to 75 µM; in data set [16] it was 0.49 µM; in data set [18], 3.4 µM. For the same compound, it took 71 µM to reach half-maximal cytotoxicity in data set [19] (CC50 at 72 h). In [19] (WI-38, 1 × 10^–4 M, mean ± SD (n = 3), read-out: Cell viability), the viability at 72 h turned out to be 22 ± 7%.

`CC1COc2c(ccc(F)c2F)N1C(=O)CCCCCCCCCCCCCCNc1ncnc2[nH]cnc12` (stereo not drawn) [Compound 1f]: the selectivity ratio at 72 h in [1] is 27; in [3] it was 3.6; in [5], 5.8; in data set [7] it was 0.35; in [9], 1.4; in data set [11] it was 1.1. Besides, the results for the selectivity ratio at 72 h in data set [13], in data set [15] and in [17] were 0.58, 15 and 12, respectively. The cytotoxic concentration (CC50) was 1.3 µM in data set [2]; 9.7 µM in [4]; 6 µM in data set [6]; 99 µM in data set [8]; 28 µM in data set [10]; 32 µM in data set [12]. The values for the CC50 in [14], in data set [16] and in [18] were 60 µM, 2.3 µM and 3 µM, respectively. In data set [19], this compound yielded a CC50 at 72 h of 35 µM.

These data come from publication PMC9962735, “Synthesis and Cytotoxic Activity of the Derivatives of N-(Purin-6-yl)aminopolymethylene Carboxylic Acids and Related Compounds” (Molecules, 2023).
